Results as given in patent US20250282799A1, “SUBSTITUTED PYRIDO[4,3-d]PYRIMIDINES AS KRAS MODULATORS” (Alterome Therapeutics, Inc., priority 2023, published 2025).
pIC50: −log10 of the molar value.

Tested on: KRAS G12V dependent lung adenocarcinoma cell line, NCI-H441
Assay: Cellular pERK (Thr202/Tyr204) FRET/HTRF assay
Format: cell-based
Conditions: Homo sapiens, NCI-H441, cellular pERK (Thr202/Tyr204) HTRF, NCI-H441 cells
Summary of the method: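 NCI-H441 cells (KRAS G12V) were seeded and grown overnight at 37 °C, 5% CO2, then treated with compound in DMSO for 1 hr. Lysates were probed with a Eu3+-cryptate/d2 antibody sandwich against pERK1/2 Thr202/Tyr204 and read by HTRF at 665 nm; IC50 from curve fitting.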

pIC50	Structure (SMILES)
> 7.30	C#Cc1cccc2cc(N)cc(-c3ncc4c(N5CCOC[C@H]6[C@H](F)[C@H]65)nc(OC[C@@H]5CCCN5C)nc4c3F)c12 [Example 297, 5-ethynyl-4-(8-fluoro-4-((1S,7S,8S)-8-fluoro-5-oxa-2-azabicyclo[5.1.0]octan-2-yl)-2-(((S)-1-methylpyrrolidin-2-yl)methoxy)pyrido[4,3-d]pyrimidin-7-yl)naphthalen-2-amine]
> 7.30	[2H]C([2H])([2H])Oc1c(F)c(F)c(F)c2cc(N)cc(-c3ncc4c(N5CCOC[C@H]6[C@H](F)[C@H]65)nc(OC[C@@]56CC(=C)CN5CCC65CC5)nc4c3F)c12 [Example 121, 6,7,8-trifluoro-4-(8-fluoro-4-((1S,7S,8S)-8-fluoro-5-oxa-2-azabicyclo[5.1.0]octan-2-yl)-2-(((S)-6′-methylenetetrahydrospiro[cyclopropane-1,1′-pyrrolizin]-7a′(5′H)-yl)methoxy)pyrido[4,3-d]pyrimidin-7-yl)-5-(methoxy-d3)naphthalen-2-amine]
> 7.30	C#Cc1c(F)ccc2cc(N)cc(-c3ncc4c(N5CCOC[C@H]6[C@H](F)[C@H]65)nc(OC[C@]56C[C@H](C)CN5CCC65CC5)nc4c3F)c12 (single isomer, unassigned) [Example 251]
6.30 to 7.30	[2H]C([2H])(Oc1nc(N2CCOC[C@H]3[C@H](F)[C@H]32)c2cnc(-c3nc(N)cc(C)c3C(F)(F)F)c(F)c2n1)[C@@]12CCCN1C[C@H](F)C2 [Example 186, 6-(8-fluoro-4-((1S,7S,8S)-8-fluoro-5-oxa-2-azabicyclo[5.1.0]octan-2-yl)-2-(((2R,7aS)-2-fluorotetrahydro-1H-pyrrolizin-7a(5H)-yl)methoxy-d2)pyrido[4,3-d]pyrimidin-7-yl)-4-methyl-5-(trifluoromethyl)pyridin-2-amine]
5.00 to 6.30	C=C1CN2CCC[C@@]2(COc2nc(N3CCCC[C@@H]4[C@@H](F)[C@@H]43)c3cnc(-c4cc(N)cc(Cl)c4C(F)(F)F)c(F)c3n2)C1 [Example 368, 3-chloro-5-(8-fluoro-4-((1R,7S,8R)-8-fluoro-2-azabicyclo[5.1.0]octan-2-yl)-2-(((S)-2-methylenetetrahydro-1H-pyrrolizin-7a(5H)-yl)methoxy)pyrido[4,3-d]pyrimidin-7-yl)-4-(trifluoromethyl)aniline]
6.30 to 7.30	[2H]C([2H])(Oc1nc(N2CC[C@@H](C#N)C[C@H]3[C@@H](F)[C@H]32)c2cnc(-c3cc(N)cc4ccc(F)c(C#C)c34)c(F)c2n1)[C@@]12CCCN1C[C@H](F)C2 [Example 308, (1S,5S,7R,8R)-2-(7-(3-amino-8-ethynyl-7-fluoronaphthalen-1-yl)-8-fluoro-2-(((2R,7aS)-2-fluorotetrahydro-1H-pyrrolizin-7a(5H)-yl)methoxy-d2)pyrido[4,3-d]pyrimidin-4-yl)-8-fluoro-2-azabicyclo[5.1.0]octane-5-carbonitrile]
5.00 to 6.30	C#Cc1c(F)ccc2cccc(-c3ncc4c(N5CCOC[C@H]6[C@H](F)[C@H]65)nc(OC[C@]56C[C@@H](F)CN5C[C@@H](CN)C6)nc4c3F)c12 [Example 246, ((2R,6R,7aS)-7a-(((7-(8-ethynyl-7-fluoronaphthalen-1-yl)-8-fluoro-4-((1S,7S,8S)-8-fluoro-5-oxa-2-azabicyclo[5.1.0]octan-2-yl)pyrido[4,3-d]pyrimidin-2-yl)oxy)methyl)-6-fluorohexahydro-1H-pyrrolizin-2-yl)methanamine]
> 7.30	C#Cc1c(F)ccc2cc(N)cc(-c3ncc4c(N5CCOC[C@H]6[C@H](F)[C@H]65)nc(OC[C@@]56CCCN5C[C@@]5(C[C@H]5F)C6)nc4c3F)c12 (single isomer, unassigned) [Example 253]
6.30 to 7.30	[2H]C([2H])(Oc1nc(N2CC[C@H](C#N)C[C@@H]3[C@H](F)[C@@H]32)c2cnc(-c3cc(N)cc4ccc(F)c(C#C)c34)c(F)c2n1)[C@@]12CCCN1C[C@H](F)C2 (stereo in doubt) [Example 309, (1R,SR,7S,8S)-2-(7-(3-amino-8-ethynyl-7-fluoronaphthalen-1-yl)-8-fluoro-2-(((2R,7aS)-2-fluorotetrahydro-1H-pyrrolizin-7a(5H)-yl)methoxy-d2)pyrido[4,3-d]pyrimidin-4-yl)-8-fluoro-2-azabicyclo[5.1.0]octane-5-carbonitrile]
6.30 to 7.30	C=C1CN2CCC[C@@]2(COc2nc(N3CCCC[C@H]4[C@H](F)[C@H]43)c3cnc(-c4cc(N)c(F)c(C)c4C(F)(F)F)c(F)c3n2)C1 [Example 392, 2-fluoro-5-(8-fluoro-4-((1S,7R,8S)-8-fluoro-2-azabicyclo[5.1.0]octan-2-yl)-2-(((S)-2-methylenetetrahydro-1H-pyrrolizin-7a(5H)-yl)methoxy)pyrido[4,3-d]pyrimidin-7-yl)-3-methyl-4-(trifluoromethyl)aniline]
> 7.30	[2H]C1([2H])OCCN(c2nc(OC([2H])([2H])[C@@]34CCCN3C[C@H](F)C4)nc3c(F)c(-c4cccc5ccc(F)c(C#C)c45)ncc23)[C@@H]2[C@@H](F)[C@@H]21 [Example 101, (1S,7S,8S)-2-(7-(8-ethynyl-7-fluoronaphthalen-1-yl)-8-fluoro-2-(((2R,7aS)-2-fluorotetrahydro-1H-pyrrolizin-7a(5H)-yl)methoxy-d2)pyrido[4,3-d]pyrimidin-4-yl)-8-fluoro-5-oxa-2-azabicyclo[5.1.0]octane-6,6-d2]

Same assay, conditions: Homo sapiens, NCI-H441, cellular pERK HTRF, NCI-H441 (KRAS G12V) cells

pIC50	Structure (SMILES)
> 7.30	[2H]C([2H])(Oc1nc(N2CCOC[C@H]3[C@H](F)[C@H]32)c2cnc(-c3cc(O)cc4ccc(F)c(C#C)c34)c(C)c2n1)[C@@]12CCCN1[C@H](C)[C@H](F)C2 [Example 471, 5-ethynyl-6-fluoro-4-(2-(((2R,3R,7aS)-2-fluoro-3-methyltetrahydro-1H-pyrrolizin-7a(5H)-yl)methoxy-d2)-4-((1S,7S,8S)-8-fluoro-5-oxa-2-azabicyclo[5.1.0]octan-2-yl)-8-methylpyrido[4,3-d]pyrimidin-7-yl)naphthalen-2-ol]
> 7.30	[2H]C([2H])(Oc1nc(N2CCOC[C@H]3[C@H](F)[C@H]32)c2cc(Cl)c(-c3ccc(F)c4sc(N)c(C#N)c34)c(C)c2n1)[C@@]12CCCN1C[C@H](F)C2 [Example 470, 2-amino-4-(6-chloro-4-((1S,7S,8S)-8-fluoro-5-oxa-2-azabicyclo[5.1.0]octan-2-yl)-2-(((2R,7aS)-2-fluorotetrahydro-1H-pyrrolizin-7a(5H)-yl)methoxy-d2)-8-methylquinazolin-7-yl)-7-fluorobenzo[b]thiophene-3-carbonitrile]

Same assay, conditions: Homo sapiens, NCI-H441, pERK HTRF, NCI-H441 cells (KRAS G12V)

pIC50	Structure (SMILES)
> 7.30	[2H]C([2H])([2H])Oc1c(F)c(F)cc2cc(N)cc(-c3ncc4c(N5CCCO[C@H]6[C@H](F)[C@H]65)nc(OC([2H])([2H])[C@@]56CCCN5C[C@H](F)C6)nc4c3F)c12 [Example 74, 6,7-Difluoro-4-(8-fluoro-4-((1R,7S,8R)-8-fluoro-2-oxa-6-azabicyclo[5.1.0]octan-6-yl)-2-(((2R,7aS)-2-fluorotetrahydro-1H-pyrrolizin-7a(5H)-yl)methoxy-d2)pyrido[4,3-d]pyrimidin-7-yl)-5-(methoxy-d3)naphthalen-2-amine]
> 7.30	[2H]C([2H])(Oc1nc(N2CCOC[C@@H]3[C@H]2C3(F)F)c2cnc(-c3cc(N)cc4cc(F)c(F)c(C#C)c34)c(F)c2n1)[C@@]12CCCN1C[C@H](F)C2 [Example 19, 4-(4-((1S,7S)-8,8-Difluoro-5-oxa-2-azabicyclo[5.1.0]octan-2-yl)-8-fluoro-2-(((2R,7aS)-2-fluorotetrahydro-1H-pyrrolizin-7a(5H)-yl)methoxy-d2)pyrido[4,3-d]pyrimidin-7-yl)-5-ethynyl-6,7-difluoronaphthalen-2-amine]
6.30 to 7.30	[2H]C1([2H])CCO[C@@H]2C[C@@H]2N1c1nc(OC([2H])([2H])[C@@]23CCCN2C[C@H](F)C3)nc2c(F)c(-c3cc(N)cc4cc(F)c(F)c(C#C)c34)ncc12 [Example 26, 4-(4-((1R,7S)-2-Oxa-6-azabicyclo[5.1.0]octan-6-yl-5,5-d2)-8-fluoro-2-(((2R,7aS)-2-fluorotetrahydro-1H-pyrrolizin-7a(5H)-yl)methoxy-d2)pyrido[4,3-d]pyrimidin-7-yl)-5-ethynyl-6,7-difluoronaphthalen-2-amine]
5.00 to 6.30	[2H]C([2H])(Oc1nc(N2CCCO[C@@H]3C[C@@H]32)c2cnc(-c3cc(N)cc4cc(F)c(F)c(C#C)c34)c(F)c2n1)[C@@]12CCCN1C[C@H](F)C2 [Example 18, 4-(4-((1R,7S)-2-Oxa-6-azabicyclo[5.1.0]octan-6-yl)-8-fluoro-2-(((2R,7aS)-2-fluorotetrahydro-1H-pyrrolizin-7a(5H)-yl)methoxy-d2)pyrido[4,3-d]pyrimidin-7-yl)-5-ethynyl-6,7-difluoronaphthalen-2-amine]

Same assay, conditions: cellular pERK HTRF, NCI-H441 (KRAS G12V) cells

pIC50	Structure (SMILES)
> 7.30	N#Cc1c(N)sc2c(F)ccc(-c3c(C(F)(F)F)cc4c(N5CCOC[C@H]6[C@H](F)[C@H]65)nc(OC[C@@]56CCCN5CC(=C(F)F)C6)nc4c3F)c12 (atropisomer, axis not shown) [Example 439, 2-amino-4-((S)-2-(((S)-2-(difluoromethylene)tetrahydro-1H-pyrrolizin-7a(5H)-yl)methoxy)-8-fluoro-4-((1S,7S,8S)-8-fluoro-5-oxa-2-azabicyclo[5.1.0]octan-2-yl)-6-(trifluoromethyl)quinazolin-7-yl)-7-fluorobenzo[b]thiophene-3-carbonitrile]
5.00 to 6.30	[2H]C([2H])(Oc1nc(N2CCOC[C@H]3[C@H](F)[C@H]32)c2cc(F)c(-c3cc(N)cc4ccc(F)c(C#C)c34)c(C)c2n1)[C@@]12CCCN1C[C@H](F)C2 (atropisomer, axis not shown; (aS)) [Example 434, 5-Ethynyl-6-fluoro-4-((R)-6-fluoro-4-((1S,7S,8S)-8-fluoro-5-oxa-2-azabicyclo[5.1.0]octan-2-yl)-2-(((2R,7aS)-2-fluorotetrahydro-1H-pyrrolizin-7a(5H)-yl)methoxy-d2)-8-methylquinazolin-7-yl)naphthalen-2-amine]
